# Activity calls are given as the source filed them.
# Columns and labels:
# [1] = blockers of HIV-1 ZM109 envelope-driven cell-cell fusion – HeLa effector, CEM target cells, luciferase, cherry-pick, dose response (AID 652058); type: functional, cell-based;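 further: luciferase signal from HIV-1 Env mediated cell-cell fusion of effector and target cells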
# [2] = Trypanosoma cruzi growth suppression in host cells – NIH3T3 host cells, beta-gal luminescence, confirmation (AID 2044); type: functional, cell-based;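 further: intracellular parasites grown in NIH/3T3 mouse fibroblasts as host cells; luminescent beta-galactosidase reporter signal from transgenic T. cruzi replicating inside host cells; inhibitors lower the luminescence signal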
# Nonstructural protein 1 = Nonstructural protein 1 (Influenza A virus, UniProt Q194T2); type: functional, Influenza A virus (A/California/07/2009(H1N1))
# Chain of Nonstructural protein 1 (Q194T2 whole entry): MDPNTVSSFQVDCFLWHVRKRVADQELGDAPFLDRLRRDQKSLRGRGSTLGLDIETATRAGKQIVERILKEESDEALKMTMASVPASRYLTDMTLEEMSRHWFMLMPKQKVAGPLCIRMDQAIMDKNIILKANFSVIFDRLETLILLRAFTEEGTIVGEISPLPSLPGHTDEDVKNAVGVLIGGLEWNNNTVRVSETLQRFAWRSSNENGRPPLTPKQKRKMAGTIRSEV
# INS1 = assay: INS-1E survival protection against cytokine death – cell-based, luminescence, retest, dose response (AID 449756); type: functional; settings: Rattus norvegicus;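 further: cell death triggered by IL-1 beta plus TNF-alpha plus IFN-gamma mixture; protective hits raise ATP signal compared with cytokine alone wells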
# [3] = system: Streptococcus sp. 'group A'; assay: Streptococcus pyogenes SK(-)GAS viability under kanamycin – luminescence, BacTiterGlo, confirmation, counter-screen for streptokinase expression inhibitor project, dose response (AID 1900); type: functional, organism-based
# Mu-type opioid receptor = Mu-type opioid receptor (Homo sapiens, UniProt P35372); assay: (§1) Counterscreen for agonists of heterodimerization of the mu 1 (OPRM1) and delta 1 (OPRD1) opioid receptors: Luminescence-based cell-based high throughput dose response assay to identify agonists of OPRM1 homodimerization.; type: functional
# Chain of Mu-type opioid receptor (P35372 whole entry): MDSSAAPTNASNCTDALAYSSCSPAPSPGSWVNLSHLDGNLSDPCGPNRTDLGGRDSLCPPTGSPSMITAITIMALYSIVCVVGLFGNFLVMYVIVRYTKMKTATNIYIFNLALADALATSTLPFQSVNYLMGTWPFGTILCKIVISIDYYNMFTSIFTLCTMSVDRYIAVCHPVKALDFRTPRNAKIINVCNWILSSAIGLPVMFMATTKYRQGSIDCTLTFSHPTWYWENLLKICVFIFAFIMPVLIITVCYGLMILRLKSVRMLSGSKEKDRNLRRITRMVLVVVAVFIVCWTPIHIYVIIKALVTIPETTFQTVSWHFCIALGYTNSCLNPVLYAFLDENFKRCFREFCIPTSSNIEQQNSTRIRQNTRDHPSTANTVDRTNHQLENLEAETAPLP
# Streptokinase A = target: T1, Streptokinase A (Streptococcus pyogenes serotype M1, UniProt P10520); assay: viability-normalized secreted streptokinase activity reduction – plasminogen activation absorbance, OD405, dose response (AID 1914); type: functional, Streptococcus pyogenes M1 GAS;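 further: secreted streptokinase activity via plasminogen activation per viability signal from cell pellet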
# T1 sequence (P10520 whole entry): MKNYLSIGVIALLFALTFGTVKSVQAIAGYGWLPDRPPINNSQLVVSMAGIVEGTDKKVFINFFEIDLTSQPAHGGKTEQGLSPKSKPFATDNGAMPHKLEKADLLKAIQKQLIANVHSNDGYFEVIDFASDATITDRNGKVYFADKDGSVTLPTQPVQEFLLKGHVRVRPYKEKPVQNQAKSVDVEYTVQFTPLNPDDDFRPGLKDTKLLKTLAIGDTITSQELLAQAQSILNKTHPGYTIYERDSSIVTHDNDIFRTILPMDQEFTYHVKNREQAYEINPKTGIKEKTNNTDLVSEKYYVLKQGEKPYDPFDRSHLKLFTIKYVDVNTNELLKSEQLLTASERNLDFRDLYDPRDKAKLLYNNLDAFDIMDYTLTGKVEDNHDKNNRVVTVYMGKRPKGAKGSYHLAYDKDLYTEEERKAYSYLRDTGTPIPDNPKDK
# Beta Lactamase = Beta Lactamase (Pseudomonas aeruginosa, UniProt Q932Y6); assay: BLA reporter interference, concentration series – BLA reporter cells, FRET fluorescence, artefact control for TLR9-MyD88 binding inhibitor project, dose response (AID 588341); type: cell-based;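 further: cell based assay in CHO-K1 cells stably expressing beta-lactamase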
# Chain of Beta Lactamase (Q932Y6 whole entry): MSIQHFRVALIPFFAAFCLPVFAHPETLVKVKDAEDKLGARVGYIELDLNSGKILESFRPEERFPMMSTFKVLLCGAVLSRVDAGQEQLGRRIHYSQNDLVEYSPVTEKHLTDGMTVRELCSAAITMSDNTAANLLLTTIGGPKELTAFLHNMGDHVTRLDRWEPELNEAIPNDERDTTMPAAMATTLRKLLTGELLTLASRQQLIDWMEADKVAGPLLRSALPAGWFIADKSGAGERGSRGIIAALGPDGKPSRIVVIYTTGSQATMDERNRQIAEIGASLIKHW
# [4] = NIH3T3 cell viability loss – ATP luminescence, mouse fibroblasts, counter-screen, dose response (AID 2010); type: functional, cell-based;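 further: cells exposed to compound for about 90 hours before reading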
# [5] = loss of viability in HepG2 cells – cell-based, CellTiter-Glo, cherry-picked, cytotoxicity control for Shn3 inhibitor project, dose response (AID 624134); type: functional
# [6] = viability loss in CEM21 cells – cell-based, CellTiter-Glo luminescence, cherry-picked, cytotoxicity control for viral fusion inhibitor project, dose response (AID 652042); type: functional;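 further: potency for signal decrease meaning cytotoxicity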
# [7] = target: T2, Replicative DNA helicase DnaB (Mycobacterium tuberculosis, UniProt P9WMR3); assay: DnaB intein splicing inhibitors, dose response, biochemical, cell-free fluorescence (AID 449749); type: functional
# T2 sequence (P9WMR3 whole entry): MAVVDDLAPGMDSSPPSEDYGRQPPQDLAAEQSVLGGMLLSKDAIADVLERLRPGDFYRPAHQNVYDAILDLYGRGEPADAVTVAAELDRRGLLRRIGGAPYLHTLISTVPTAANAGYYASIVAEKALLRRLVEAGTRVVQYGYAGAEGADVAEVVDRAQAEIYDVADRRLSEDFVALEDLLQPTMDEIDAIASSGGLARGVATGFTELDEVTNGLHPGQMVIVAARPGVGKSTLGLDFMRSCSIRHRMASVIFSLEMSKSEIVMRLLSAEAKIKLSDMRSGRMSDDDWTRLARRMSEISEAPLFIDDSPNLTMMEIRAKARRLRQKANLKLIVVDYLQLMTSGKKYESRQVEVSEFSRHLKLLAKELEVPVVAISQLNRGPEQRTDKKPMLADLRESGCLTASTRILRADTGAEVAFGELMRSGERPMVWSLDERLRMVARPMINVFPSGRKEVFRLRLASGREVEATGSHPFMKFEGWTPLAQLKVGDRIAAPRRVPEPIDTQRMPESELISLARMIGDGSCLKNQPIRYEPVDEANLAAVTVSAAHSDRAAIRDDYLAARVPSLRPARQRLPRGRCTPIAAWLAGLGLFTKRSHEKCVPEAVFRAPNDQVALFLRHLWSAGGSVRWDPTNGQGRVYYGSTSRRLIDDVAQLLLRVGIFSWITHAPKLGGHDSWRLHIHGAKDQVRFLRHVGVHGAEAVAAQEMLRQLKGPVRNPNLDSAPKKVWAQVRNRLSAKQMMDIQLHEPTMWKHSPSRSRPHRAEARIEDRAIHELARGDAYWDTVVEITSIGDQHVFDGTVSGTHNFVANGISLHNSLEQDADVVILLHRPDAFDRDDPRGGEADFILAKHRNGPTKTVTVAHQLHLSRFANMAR
# HEK293 = assay: EBV LMP1 TES2 canonical NF-kB signalling blockers – cell-based, HEK293, luciferase, cherry-pick, dose response (AID 588343); type: functional; settings: Homo sapiens
# CHO = CHO cell viability loss, potency – luminescence, cytotoxicity control for TLR9-MyD88 binding inhibitor project, dose response (AID 588339); type: functional, cell-based, hamster; settings: Cricetulus griseus;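 further: CHO cells stably coexpressing TLR9 and MyD88 fusions from primary screen; compound exposure lasted 48 hours before viability readout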
# Protein RecA = target: T3, Protein RecA (Mycobacterium tuberculosis, UniProt P9WHJ3); assay: Fluorescence Cell-Free Homogeneous Dose Retest to Identify Inhibitors of RecA-Intein Splicing Activity. [Related pubchem assays (depositor defined):AID2097, AID2223, AID489010, AID492950]; type: functional
# T3 sequence (P9WHJ3 whole entry): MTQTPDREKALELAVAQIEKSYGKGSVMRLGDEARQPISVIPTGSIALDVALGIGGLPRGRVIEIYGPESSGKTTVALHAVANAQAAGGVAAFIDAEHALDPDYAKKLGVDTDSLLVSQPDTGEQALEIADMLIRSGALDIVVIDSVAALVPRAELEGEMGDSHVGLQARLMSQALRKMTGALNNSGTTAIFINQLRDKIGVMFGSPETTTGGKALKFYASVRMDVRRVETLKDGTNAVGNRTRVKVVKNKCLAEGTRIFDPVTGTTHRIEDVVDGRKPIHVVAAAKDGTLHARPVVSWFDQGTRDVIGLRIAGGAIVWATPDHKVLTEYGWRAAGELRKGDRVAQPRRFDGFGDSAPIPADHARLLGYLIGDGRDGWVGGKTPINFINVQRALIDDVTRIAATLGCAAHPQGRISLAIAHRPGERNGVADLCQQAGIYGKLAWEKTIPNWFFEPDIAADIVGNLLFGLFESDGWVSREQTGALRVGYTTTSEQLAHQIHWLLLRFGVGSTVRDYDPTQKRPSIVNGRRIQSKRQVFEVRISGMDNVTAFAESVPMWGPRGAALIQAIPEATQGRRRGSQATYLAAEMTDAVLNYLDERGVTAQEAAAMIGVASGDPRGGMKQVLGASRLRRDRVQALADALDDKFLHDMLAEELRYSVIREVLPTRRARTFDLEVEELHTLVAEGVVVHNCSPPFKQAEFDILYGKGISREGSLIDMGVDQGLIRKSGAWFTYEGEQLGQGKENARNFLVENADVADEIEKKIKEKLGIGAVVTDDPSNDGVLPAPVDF
# [8] = target: Delta-type opioid receptor (Homo sapiens, UniProt P41143); assay: as §1, with “of OPRD1” for “of OPRM1”, “homodimerization. [Related pubchem assays (depositor defined):AID504326, AID504355, AID504692, AID504904, AID504905]” for “homodimerization.”; type: functional
# Chain of Delta-type opioid receptor (P41143 whole entry): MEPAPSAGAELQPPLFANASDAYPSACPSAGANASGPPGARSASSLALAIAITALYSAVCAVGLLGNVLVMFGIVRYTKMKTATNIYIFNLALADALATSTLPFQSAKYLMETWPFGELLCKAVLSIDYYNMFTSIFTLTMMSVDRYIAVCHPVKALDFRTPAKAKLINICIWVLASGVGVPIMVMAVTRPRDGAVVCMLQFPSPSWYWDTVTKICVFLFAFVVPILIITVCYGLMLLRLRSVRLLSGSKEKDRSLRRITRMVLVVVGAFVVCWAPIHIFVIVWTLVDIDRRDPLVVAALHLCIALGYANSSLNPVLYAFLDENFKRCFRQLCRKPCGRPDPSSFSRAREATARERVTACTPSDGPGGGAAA
# [9] = reduction of Shn3 3'UTR-driven luciferase in osteoblasts – cell-based, Clone20 osteoblasts, firefly luciferase, cherry-picked, dose response (AID 624132); type: functional;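 further: firefly luciferase luminescence from reporter carrying the Shn3 3'UTR in osteoblasts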
# [10] = target: G-protein coupled receptor 55 (Homo sapiens, UniProt Q9Y2T6); assay: selective activators of receptor GPR55 – imaging, U2OS cells, beta-arrestin-GFP redistribution, primary screen (AID 1961); type: functional
# Chain of G-protein coupled receptor 55 (Q9Y2T6 whole entry): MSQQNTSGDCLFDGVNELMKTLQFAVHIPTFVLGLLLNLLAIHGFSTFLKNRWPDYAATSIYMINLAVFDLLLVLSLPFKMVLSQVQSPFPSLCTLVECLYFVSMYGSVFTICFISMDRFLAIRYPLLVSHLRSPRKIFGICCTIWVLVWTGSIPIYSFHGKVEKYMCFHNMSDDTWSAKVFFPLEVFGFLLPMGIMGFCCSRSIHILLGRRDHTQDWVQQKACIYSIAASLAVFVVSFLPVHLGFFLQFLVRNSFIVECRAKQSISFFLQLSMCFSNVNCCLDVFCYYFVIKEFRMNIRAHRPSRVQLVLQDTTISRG
# Streptococcus = assay: GAS UMAA2166 growth inhibition – luminescence, BacTiterGlo, counter-screen for streptokinase expression inhibitor project, dose response (AID 1915); type: functional, organism-based;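 further: potency for reduction of bacterial viability or growth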
# [11] = blockers of HIV-1 envelope-mediated cell-cell fusion – cherry-pick, dose response (AID 652057); type: functional, cell-based
# [12] = non-specific 3'UTR reporter inhibition in Clone20-Shn3RL – cell-based, Renilla luciferase, cherry-picked, counter-screen for Shn3 inhibitor project, dose response (AID 624133); type: functional
# [13] = target: 5-hydroxytryptamine receptor 5A (Homo sapiens, UniProt P47898); assay: Counterscreen for agonists of OPRM1-OPRD1 heterodimerization: luminescence-based cell-based high throughput dose response assay to identify agonists of 5-hydroxytryptamine (serotonin) 5A receptor (HTR5A). [Related pubchem assays (depositor defined):AID504326, AID504355, AID504692, AID504904, AID504905]; type: functional
# Chain of 5-hydroxytryptamine receptor 5A (P47898 whole entry, the tested form may be a part): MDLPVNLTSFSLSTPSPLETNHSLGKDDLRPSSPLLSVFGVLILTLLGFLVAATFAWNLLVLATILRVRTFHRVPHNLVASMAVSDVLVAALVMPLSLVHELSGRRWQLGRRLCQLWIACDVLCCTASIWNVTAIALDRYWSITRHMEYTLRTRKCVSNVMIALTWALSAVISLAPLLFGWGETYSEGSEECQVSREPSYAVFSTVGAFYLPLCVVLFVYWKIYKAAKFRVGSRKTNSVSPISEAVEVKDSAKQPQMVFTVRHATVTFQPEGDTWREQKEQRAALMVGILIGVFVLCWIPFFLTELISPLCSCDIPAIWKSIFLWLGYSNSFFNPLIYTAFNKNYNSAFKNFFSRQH
# [14] = HIV-1 AD8 envelope cell-cell fusion blockers – cherry-pick, dose response (AID 652062); type: functional, cell-based;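 further: luciferase signal from cell-cell fusion driven by HIV-1 clade B AD8 Env; potency is for inhibitors of fusion seen as a drop in luminescence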
structure (smiles),measurement,setting,value
CCc1ccc(Nc2n[n+](-c3ccccc3)c(-c3c(Cl)cccc3Cl)s2)cc1,AC50,[1],23.3 µM (active)
same,EC50,[2],1.35 µM (active)
same,IC50,Nonstructural protein 1,24.4 µM (active)
same,AC50,INS1,3.65 µM (active)
same,EC50,[3],3.58 µM (active)
same,EC50,Mu-type opioid receptor,> 92.5 µM (inactive)
same,EC50,Streptokinase A,7.4 µM (active)
same,IC50,Beta Lactamase,3.12 µM (active)
same,EC50,[4],5.53 µM (active)
same,AC50,[5],14.6 µM (active)
same,AC50,[6],10.8 µM (active)
same,AC50,[7],3.71 µM (active)
same,AC50,HEK293,47.5 µM (active)
same,IC50,CHO,6.79 µM (active)
same,EC50,Protein RecA,9.38 µM (active)
same,EC50,[8],14.2 µM (inactive)
same,AC50,[9],5.4 µM (active)
same,EC50,[10],> 32 µM (inactive)
same,EC50,Streptococcus,10.3 µM (active)
same,AC50,[11],15.5 µM (active)
same,AC50,[12],19.4 µM (active)
same,EC50,[13],> 92.5 µM (inactive)
same,AC50,[14],5.91 µM (active)

# Reference: ChEMBL document CHEMBL1201862, “PubChem BioAssay data set” (2004)
